Measured values published in patent publication US6387943B1, “Vancoresmycin, a process for its production and its use as a pharmaceutical” (Aventis Pharma Deutschland GmbH, priority 1998, dated 2002).
In brackets after ≈: the same amount, converted by molar mass.

What was measured:
Ent. faecalis D 21777 = test: Minimum inhibitory concentration (MIC); format: cell-based; details: Enterococcus faecalis, D21777
S. epidermidis 825 = test: Minimum inhibitory concentration (MIC); format: cell-based; details: Staphylococcus epidermidis
Ent. faecalis D 23241 = test: Minimum inhibitory concentration (MIC); format: cell-based; details: Enterococcus faecalis, D23241
Ent. faecium VR-1 = test: Minimum inhibitory concentration (MIC); format: cell-based; details: Enterococcus faecium, VR1; Ent. faecium VR-1 (resistant to vancomycin)
Escherichia coli 9632 = test: Minimum inhibitory concentration (MIC); format: cell-based
Ent. faecium D-65 = test: Minimum inhibitory concentration (MIC); format: cell-based; details: Enterococcus faecium, D65
S. aureus E-710 = test: Minimum inhibitory concentration (MIC); format: cell-based; details: Staphylococcus aureus, E710
Ent. durans 4939H = test: Minimum inhibitory concentration (MIC); format: cell-based; details: Enterococcus durans
S. epidermidis 5747 IW = test: Minimum inhibitory concentration (MIC); format: cell-based; details: Staphylococcus epidermidis
S. aureus 503(Mers) = test: Minimum inhibitory concentration (MIC); format: cell-based
S. aureus Wein 11 = test: Minimum inhibitory concentration (MIC); format: cell-based; details: Staphylococcus aureus, WEIN11
Ent. faecium P-1 = test: Minimum inhibitory concentration (MIC); format: cell-based; details: Enterococcus faecium, P1
S. epidermidis 607 = test: Minimum inhibitory concentration (MIC); format: cell-based; details: Staphylococcus epidermidis
Ent. faecium 5601 (H) = test: Minimum inhibitory concentration (MIC); format: cell-based; details: Enterococcus faecium
S. aureus E-712 = test: Minimum inhibitory concentration (MIC); format: cell-based; details: Staphylococcus aureus, E712
Ent. faecalis D 756 = test: Minimum inhibitory concentration (MIC); format: cell-based; details: Enterococcus faecalis, D756
S. aureus 3066 = test: Minimum inhibitory concentration (MIC); format: cell-based; details: Staphylococcus aureus; S. aureus 3066 (resistant strain to methicillin)
Ent. faecalis D 26777 = test: Minimum inhibitory concentration (MIC); format: cell-based; details: Enterococcus faecalis, D26777
S. aureus SG511 = test: Minimum inhibitory concentration (MIC); format: cell-based; details: Staphylococcus aureus
[1] = system: Staphylococcus aureus 209P; test: Minimum inhibitory concentration (MIC); format: cell-based
Ent. faecium P-2 = test: Minimum inhibitory concentration (MIC); format: cell-based; details: Enterococcus faecium, P2
S. aureus 20424 = test: Minimum inhibitory concentration (MIC); format: cell-based; details: Staphylococcus aureus
S. epidermidis 823 = test: Minimum inhibitory concentration (MIC); format: cell-based; details: Staphylococcus epidermidis
S. aureus Wein 12 = test: Minimum inhibitory concentration (MIC); format: cell-based; details: Staphylococcus aureus, WEIN12
S. aureus Chantot 31153 = test: Minimum inhibitory concentration (MIC); format: cell-based; details: Staphylococcus aureus, CHANTOT31153
E. coli super sen. 2231 = test: Minimum inhibitory concentration (MIC); format: cell-based; details: Escherichia coli
S. warneri 6563 II (2) = test: Minimum inhibitory concentration (MIC); format: cell-based; details: Staphylococcus warneri
[2] = system: vancomycin- and teicoplanin-resistant strains; test: Antibiotic activity against resistant strains; format: cell-based
S. aureus Brussel 4115 = test: Minimum inhibitory concentration (MIC); format: cell-based; details: Staphylococcus aureus, BRUSSEL4115
[3] = system: Enterococcus faecalis ATCC 29212; test: Minimum inhibitory concentration (MIC); format: cell-based; details: ATCC29212
[4] = system: Pseudomonas aeruginosa M35; test: Minimum inhibitory concentration (MIC); format: cell-based
S. haemolyticus 809 = test: Minimum inhibitory concentration (MIC); format: cell-based; details: Staphylococcus haemolyticus
[5] = Solubility (physico-chemical properties); format: physicochemical; details: solvents in which soluble
Ent. hirae 55 = test: Minimum inhibitory concentration (MIC); format: cell-based; details: Enterococcus hirae
Ent. faecalis D 7F = test: Minimum inhibitory concentration (MIC); format: cell-based; details: Enterococcus faecalis, D7F
S. aureus 20240 = test: Minimum inhibitory concentration (MIC); format: cell-based; details: Staphylococcus aureus
S. aureus MLS-16 = test: Minimum inhibitory concentration (MIC); format: cell-based; details: Staphylococcus aureus, MLS16

Which MIC (Ent. faecalis D 21777) does the source give for C/C(=C\CC(O)CC(O)CCC(C)C(O)C(C)C(O)CCCC(O)C(C)C(O)/C(C)=C/C(C)C(=O)/C(C)=C/C(O)C(O)CC(O)CC(OC1OC(C)C(O)C(N)C1O)C(C)CCC(O)CC(O)CCC(C)C(O)C(C)C(O)C(C)C)C(=O)C1=C(O)/C(=C/C(C)C)N(C)C1=O (stereo not shown) [Vancoresmycin] here?
Its MIC is 0.39 µg/mL (≈ 0.29 µM).

And the MIC (S. epidermidis 825)?
The MIC was 0.1 µg/mL (≈ 0.0744 µM).

What about the MIC (Ent. faecalis D 23241) of the same compound?
Its MIC is 0.39 µg/mL (≈ 0.29 µM).

What about the MIC (Ent. faecium VR-1) of the same compound?
Its MIC is 0.39 µg/mL (≈ 0.29 µM).

What about the MIC (Escherichia coli 9632) of the same compound?
Its MIC is over 100 µg/mL.

What about the MIC (Ent. faecium D-65) of the same compound?
Its MIC is 0.39 µg/mL (≈ 0.29 µM).

What about the MIC (S. aureus E-710) of the same compound?
Its MIC is 0.1 µg/mL (≈ 0.0744 µM).

What about the MIC (Ent. durans 4939H) of the same compound?
The MIC was 0.39 µg/mL (≈ 0.29 µM).

What about the MIC (S. epidermidis 5747 IW) of the same compound?
The MIC was 0.1 µg/mL (≈ 0.0744 µM).

And the MIC (S. aureus 503(Mers))?
Its MIC is 0.025 µg/mL (≈ 0.0186 µM).

And the MIC (S. aureus Wein 11)?
The MIC was 0.05 µg/mL (≈ 0.0372 µM).

What about the MIC (Ent. faecium P-1) of the same compound?
Its MIC is 0.39 µg/mL (≈ 0.29 µM).

And the MIC (S. epidermidis 607)?
The MIC was 0.1 µg/mL (≈ 0.0744 µM).

And the MIC (Ent. faecium 5601 (H))?
The MIC was 0.39 µg/mL (≈ 0.29 µM).

And the MIC (S. aureus E-712)?
The MIC was 0.1 µg/mL (≈ 0.0744 µM).

And the MIC (Ent. faecalis D 756)?
Its MIC is 0.39 µg/mL (≈ 0.29 µM).

And the MIC (S. aureus 3066)?
Its MIC is 0.1 µg/mL (≈ 0.0744 µM).

And the MIC (Ent. faecalis D 26777)?
The MIC was 0.39 µg/mL (≈ 0.29 µM).

What about the MIC (S. aureus SG511) of the same compound?
The MIC was 0.05 µg/mL (≈ 0.0372 µM).

What about the MIC [1] of the same compound?
Its MIC is 0.05 µg/mL (≈ 0.0372 µM).

And the MIC (Ent. faecium P-2)?
The MIC was 0.39 µg/mL (≈ 0.29 µM).

What about the MIC (S. aureus 20424) of the same compound?
Its MIC is 0.1 µg/mL (≈ 0.0744 µM).

And the MIC (S. epidermidis 823)?
The MIC was 0.2 µg/mL (≈ 0.149 µM).

And the MIC (S. aureus Wein 12)?
The MIC was 0.05 µg/mL (≈ 0.0372 µM).

And the MIC (S. aureus Chantot 31153)?
The MIC was 0.05 µg/mL (≈ 0.0372 µM).

What about the MIC (E. coli super sen. 2231) of the same compound?
The MIC was over 100 µg/mL.

What about the MIC (S. warneri 6563 II (2)) of the same compound?
The MIC was 0.1 µg/mL (≈ 0.0744 µM).

What about the antibiotic activity [2] of the same compound?
Its antibiotic activity is “active”.

And the MIC (S. aureus Brussel 4115)?
Its MIC is 0.05 µg/mL (≈ 0.0372 µM).

What about the MIC [3] of the same compound?
The MIC was 0.39 µg/mL (≈ 0.29 µM).

What about the MIC [4] of the same compound?
The MIC was over 100 µg/mL.

And the MIC (S. haemolyticus 809)?
Its MIC is 0.05 µg/mL (≈ 0.0372 µM).

And the Solubility [5]?
The Solubility was “Methanol, DMSO”.

And the MIC (Ent. hirae 55)?
The MIC was 0.39 µg/mL (≈ 0.29 µM).

And the MIC (Ent. faecalis D 7F)?
Its MIC is 0.39 µg/mL (≈ 0.29 µM).

And the MIC (S. aureus 20240)?
The MIC was 0.05 µg/mL (≈ 0.0372 µM).

What about the MIC (S. aureus MLS-16) of the same compound?
The MIC was 0.39 µg/mL (≈ 0.29 µM).
